Measured values as given in US20060094786A1, “Treating syndrome X with substituted tetralins and indanes” (priority 2002, published 2006).

Key:
[1] = biological target: T1, PPARα (Rattus norvegicus, UniProt P37230); experiment: HD bDNA Assay (HD gene induction, H4IIE rat hepatoma cell line); type: cell-based; settings: assay not named, values equal the PPARα column
T1 construct: H4IIE rat hepatoma cell line was obtained from ATCC; host or cells: H4IIE rat hepatoma cells
T1 sequence (P37230 1-468): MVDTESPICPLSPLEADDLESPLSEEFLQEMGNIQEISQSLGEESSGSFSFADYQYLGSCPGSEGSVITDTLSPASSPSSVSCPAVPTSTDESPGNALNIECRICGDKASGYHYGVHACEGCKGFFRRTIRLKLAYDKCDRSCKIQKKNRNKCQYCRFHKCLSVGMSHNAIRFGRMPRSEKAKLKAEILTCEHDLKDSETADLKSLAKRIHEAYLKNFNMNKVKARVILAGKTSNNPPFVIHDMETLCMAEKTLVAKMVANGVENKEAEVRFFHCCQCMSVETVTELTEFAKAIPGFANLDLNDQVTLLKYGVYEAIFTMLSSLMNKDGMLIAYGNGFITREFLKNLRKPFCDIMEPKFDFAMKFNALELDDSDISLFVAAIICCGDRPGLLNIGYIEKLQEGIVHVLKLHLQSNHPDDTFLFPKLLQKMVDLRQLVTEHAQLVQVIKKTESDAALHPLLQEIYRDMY
Description: H4IIE rat hepatoma cell line was obtained from ATCC. Cells were cultured in 175 cm^2 tissue culture flask or seeded in 96-well plate with (high serum content, 10% fetal bovine serum and 10% calf serum) culture medium and maintained at 37° C. and 5% CO2 throughout study. Twenty-four hours after the initial seeding of the 96-well plate by hand (approximate 100,000/well), the HD gene induction assay was initiated. Media was removed and replaced with 100 ul of low serum culture media (5% charcoal/dextran treated calf serum) containing vehicle (DMSO) or test compounds or standard. Cells returned to incubator for 24 hours culture. At the termination of the challenge, 50 ul lysis buffer with HD gene specific CE, LE, BL probes was added directly into each well to initiate the is bDNA HD mRNA assay. The branched DNA assay was performed according to the manufacturer's protocol (Bayer Diagnostics; Emeryville. Calif.). At the end of the assay, the luminescence was quantitated in Dynex MLX microtiter plate luminometer. EC50's were determined by non-linear regression with a sigmoidal fit utilizing Graphpad Prism.

[2] = biological target: T2, PPARγ (Homo sapiens, UniProt P37231); experiment: aP2 Assay for PPAR Gamma Agonists (bDNA aP2 mRNA, preadipocytes); type: cell-based; settings: for PPARγ FI: fold induction, unbracketed values, PPARγ standard FI = 70.3
T2 construct: Following the challenge of the preadipocytes, cells may be lysed with lysis buffer; endogenous in cells; host or cells: preadipocytes
T2 sequence (P37231 1-505): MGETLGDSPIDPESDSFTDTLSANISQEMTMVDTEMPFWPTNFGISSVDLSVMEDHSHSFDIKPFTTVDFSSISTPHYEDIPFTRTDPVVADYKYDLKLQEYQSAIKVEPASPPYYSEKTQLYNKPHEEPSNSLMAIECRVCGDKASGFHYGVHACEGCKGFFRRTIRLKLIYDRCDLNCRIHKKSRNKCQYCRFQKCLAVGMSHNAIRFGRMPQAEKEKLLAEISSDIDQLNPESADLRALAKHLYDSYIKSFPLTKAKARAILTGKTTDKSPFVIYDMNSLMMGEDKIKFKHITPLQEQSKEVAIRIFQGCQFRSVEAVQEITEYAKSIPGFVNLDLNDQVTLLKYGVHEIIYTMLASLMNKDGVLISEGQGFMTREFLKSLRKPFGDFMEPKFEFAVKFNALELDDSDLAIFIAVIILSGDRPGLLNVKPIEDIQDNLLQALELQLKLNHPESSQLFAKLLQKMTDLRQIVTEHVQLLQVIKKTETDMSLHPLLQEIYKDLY
Excerpt: aP2 Assay for PPAR Gamma Agonists
The procedure is described in detail in Burris et al., Molecular Endocrinology 1999, 13:410, which is hereby incorporated by reference in its entirety, and aP2 assay results of agonist intrinsic activity may be presented as fold increase over vehicle in induction of aP2 mRNA production.
Twenty-four hours after the initial seeding of the 96-well plates by hand (around 20,000/well), the differentiation assay may be initiated. Medium may be removed and replaced with 150 μl of differentiation medium containing vehicle (DMSO) or test compounds. Cells may be returned to incubator for 24 hours culture. At the termination of the challenge, medium may be removed and 100 ul of lysis buffer may be added to initiate the bDNA aP2 mRNA assay. The branched DNA assay may be performed according to the manufacturer's protocol (Bayer Diagnostics; Emeryville, Calif.). Result may be expressed as the fold increase of aP2 mRNA production activated over vehicle controls. EC50's and Emax may be determined by non-linear regression with a sigmoidal fit curve.
Following the challenge of the preadipocytes, cells may be lysed with lysis buffer (Bayer Diagnostics) containing the aP2 oligonucleotides. After a 15 minute incubation at 53° C. or 30 minutes at 37° C. incubator, 70 ul of the lysis buffer from each well may be added to a corresponding capture well (preincubated with 70 ul of blocking buffer (Bayer Diagnostics)). The capture plate may be incubated overnight at 53° C. in a plate incubator (Bayer Diagnostics). After this incubation, the bDNA and labeled probes may be annealed as directed by the manufacturer. Following a 30-minute incubation with the luminescent alkaline phosphatase substrate, dioxitane, the luminescence may be quantitated in a Dynex MLX microtiter plate luminometer. Oligonucleotide probes designed to anneal to the aP2 mRNA and function in the bDNA mRNA detection system are designed with ProbeDesigner software (Bayer Diagnostics). This software package analyzes a target sequence of interest with a series of algorithms in order to determine which regions of the sequence can perform as locations for capture, label, or spacer probe annealing. The sequences of the oligonucleotides are as follows: […]

[3] = biological target: T3, PPARδ (Homo sapiens, UniProt Q03181); experiment: Transfection Assay for PPARδ Receptors (PPAR-Gal4 receptor / Gal4-Luciferase Reporter, HEK293 cells); type: cell-based; settings: for PPARδ FI: fold induction, unbracketed values, PPARδ standard FI = 36.1
T3 sequence (Q03181 171-441 limits assumed): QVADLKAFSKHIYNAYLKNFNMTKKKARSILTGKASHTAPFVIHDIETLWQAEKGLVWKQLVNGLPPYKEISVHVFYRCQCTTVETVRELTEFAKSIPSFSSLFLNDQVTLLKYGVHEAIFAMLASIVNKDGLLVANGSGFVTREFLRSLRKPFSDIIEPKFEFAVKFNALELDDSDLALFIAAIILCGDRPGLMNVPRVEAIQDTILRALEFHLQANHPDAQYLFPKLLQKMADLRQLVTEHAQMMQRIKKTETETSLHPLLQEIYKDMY
Description: Transfection Assay for PPARδ Receptors
HEK293 cells were grown in DMEM/F-12 Media supplemented with 10% FBS and glutamine (GIBCOBRL). The cells were co-transfected with DNA for PPAR-Gal4 receptor and Gal4-Luciferase Reporter using the DMRIE-C Reagent. On the following day, the DNA-containing medium were replaced with 5% Charcoal treated FBS growth medium. After six hours, cells were seeded in 96 well plate and incubated at 37° C. in CO2 incubator overnight. Cells were challenged by test compounds and incubated for 24 hours at 37° C. in 5% CO2 incubator. Luciferase activity was assayed using the Steady-Glo Luciferase Assay Kit from Promega. DMRIE-C Reagent was purchased from GIBCO Cat. No. 10459-014. OPTI-MEM I Reduced Serum Medium was purchased from GIBCO Cat. No. 31985. Steady-Glo Luciferase Assay Kit was obtained from Promega Part# E254B.

[4] = Comparison of activity of (R) and (S) isomer (test not stated); settings: chiral center on C-2 of the indane ring
Excerpt: Unless otherwise mentioned or indicated, the chemical designation of compounds denotes the mixture of all possible stereochemically isomeric forms, said mixtures containing all diastereomers and enantiomers of the basic molecular structure. More in particular, stereogenic centers may have the (R)- or (S)-configuration; substituents on bivalent cyclic saturated radicals may have either the cis- or trans-configuration. The invention encompasses stereochemically isomeric forms including diastereoisomers, as well as mixtures thereof in any proportion of the disclosed compounds. The disclosed compounds may also exist in their tautomeric forms. Such forms although not explicitly indicated in the above and following formulae are intended to be included within the scope of the present invention. For example, in compound 2.1 or Example 3, there is a chiral center on the C-2 of the indane ring.

EC50 [1] [µM]	PPARγ FI [2]	PPARδ FI [3]	EC50 ([2]; bracketed values) [µM]	EC50 ([3]; bracketed values) [µM]	Structure (SMILES)	activity of the (R) isomer relative to the (S) isomer [4]
0.165	5.1	–	–	–	CCCCCN(C(=O)Nc1ccc(C(C)C)cc1)C1Cc2ccc(SC(C)(C)C(=O)O)cc2C1 (centres unmarked) [Example 10, 2-{2-[3-(4-Isopropylphenyl)-1-(pentyl)ureido]indan-5-ylsulfanyl}-2-methylpropionic acid]	–
–	1.9	5.9	–	–	CCCCCN(C(=O)Nc1ccc(OC(F)(F)F)cc1)C1Cc2ccc(SC(C)(C)C(=O)O)cc2C1 (centres unmarked) [Example 8, 2-Methyl-2-{2-[1-pentyl-3-(4-trifluoromethoxyphenyl)ureido]indan-5-ylsulfanyl}-2-methylpropionic acid]	–
0.173	6.1	–	–	–	CCCCCN(C(=O)Nc1ccc(C(C)(C)C)cc1)C1Cc2ccc(SC(C)(C)C(=O)O)cc2C1 (centres unmarked) [Example 11, 2-{2-[3-(4-tert-butylphenyl)-1-(pentyl)ureido]indan-5-ylsulfanyl}-2-methylpropionic acid]	–
–	0.3	1.3	–	–	CCCCCCN(C(=O)Nc1ccc(OC(F)(F)F)cc1)C1Cc2ccc(SC(C)(C)C(=O)O)cc2C1 (centres unmarked) [Example 14, 2-Methyl-2-{2-[1-hexyl-3-(4-trifluoromethoxyphenyl)ureido]indan-5-ylsulfanyl}propionic acid]	–
–	0.24	4.2	–	–	CCN(C(=O)Nc1ccc(OC(F)(F)F)cc1)C1Cc2ccc(SC(C)(C)C(=O)O)cc2C1 (centres unmarked) [Example 2, 2-{2-[1-Ethyl-3-(4-trifluoromethoxyphenyl)ureido]indan-5-ylsulfanyl}-2-methylpropionic acid]	–
0.008	–	–	> 10	> 10	CCN(C(=O)Nc1ccc(OC(F)(F)F)cc1)[C@@H]1Cc2ccc(SC(C)(C)C(=O)O)cc2C1 [Example 3, (R)-2-{2-[1-Ethyl-3-(4-trifluoromethoxyphenyl)ureido]indan-5-ylsulfanyl}-2-methylpropionic acid]	more active than the (S) isomer
